Tests used:
[1] = biological target: Serine/threonine-protein kinase VRK2 (Homo sapiens) (UniProt Q86Y07); assay: Selectivity interaction (KinomeScan (DiscoverX)) EUB0000229b VRK2; details: at 10 µM
[2] = system: Hepatocyte growth factor receptor (Homo sapiens), P08581 [M1250T]; assay: (§1) Selectivity interaction (KinomeScan (DiscoverX)) EUB0000311b MET; details: at 1 µM
[3] = system: Hepatocyte growth factor receptor (Homo sapiens), P08581 [Y1235D]; assay: as §1; details: at 1 µM
[4] = biological target: Hepatocyte growth factor receptor (Homo sapiens, UniProt P08581); assay: as §1; details: at 1 µM
Chain of Hepatocyte growth factor receptor (P08581 whole entry): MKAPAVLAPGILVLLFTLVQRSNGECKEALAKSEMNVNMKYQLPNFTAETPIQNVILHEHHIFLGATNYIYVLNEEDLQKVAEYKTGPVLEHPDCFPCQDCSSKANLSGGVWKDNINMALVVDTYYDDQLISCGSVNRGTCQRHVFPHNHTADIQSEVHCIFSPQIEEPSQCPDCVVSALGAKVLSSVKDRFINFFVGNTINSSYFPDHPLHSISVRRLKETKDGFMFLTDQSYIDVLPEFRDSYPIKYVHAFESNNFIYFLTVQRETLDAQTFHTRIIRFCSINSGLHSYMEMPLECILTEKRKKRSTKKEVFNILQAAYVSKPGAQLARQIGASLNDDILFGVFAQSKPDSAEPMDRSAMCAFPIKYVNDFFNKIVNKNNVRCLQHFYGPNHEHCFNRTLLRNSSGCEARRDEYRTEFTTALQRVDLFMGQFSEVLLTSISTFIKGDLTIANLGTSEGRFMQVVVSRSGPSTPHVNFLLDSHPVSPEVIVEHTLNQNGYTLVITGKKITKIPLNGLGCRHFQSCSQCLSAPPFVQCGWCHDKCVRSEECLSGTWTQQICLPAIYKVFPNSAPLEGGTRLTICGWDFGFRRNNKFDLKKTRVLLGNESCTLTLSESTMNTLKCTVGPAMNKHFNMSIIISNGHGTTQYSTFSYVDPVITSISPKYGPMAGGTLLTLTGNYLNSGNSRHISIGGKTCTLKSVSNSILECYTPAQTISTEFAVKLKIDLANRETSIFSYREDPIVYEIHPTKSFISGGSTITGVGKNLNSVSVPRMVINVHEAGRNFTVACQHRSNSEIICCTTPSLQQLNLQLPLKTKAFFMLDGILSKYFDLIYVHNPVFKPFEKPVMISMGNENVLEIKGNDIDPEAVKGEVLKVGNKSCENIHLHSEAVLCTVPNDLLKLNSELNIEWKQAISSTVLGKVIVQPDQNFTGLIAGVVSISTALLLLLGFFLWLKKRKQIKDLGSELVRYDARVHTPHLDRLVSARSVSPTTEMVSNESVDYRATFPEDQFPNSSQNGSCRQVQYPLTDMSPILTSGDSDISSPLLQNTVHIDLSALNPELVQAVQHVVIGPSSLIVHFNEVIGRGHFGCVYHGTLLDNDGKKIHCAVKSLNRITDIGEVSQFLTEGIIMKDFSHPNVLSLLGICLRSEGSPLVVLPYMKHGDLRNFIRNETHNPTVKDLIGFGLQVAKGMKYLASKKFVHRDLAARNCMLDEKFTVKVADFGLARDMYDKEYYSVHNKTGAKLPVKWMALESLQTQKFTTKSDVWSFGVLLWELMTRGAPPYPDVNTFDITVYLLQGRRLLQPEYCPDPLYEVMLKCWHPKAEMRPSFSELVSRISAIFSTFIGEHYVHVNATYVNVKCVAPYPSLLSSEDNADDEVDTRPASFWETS

[5] = biological target: T1, Serine/threonine-protein kinase 36 (Homo sapiens) (UniProt Q9NRP7); assay: Selectivity interaction (KinomeScan (DiscoverX)) EUB0000666a STK36; details: at 10 µM
T1 sequence (whole entry): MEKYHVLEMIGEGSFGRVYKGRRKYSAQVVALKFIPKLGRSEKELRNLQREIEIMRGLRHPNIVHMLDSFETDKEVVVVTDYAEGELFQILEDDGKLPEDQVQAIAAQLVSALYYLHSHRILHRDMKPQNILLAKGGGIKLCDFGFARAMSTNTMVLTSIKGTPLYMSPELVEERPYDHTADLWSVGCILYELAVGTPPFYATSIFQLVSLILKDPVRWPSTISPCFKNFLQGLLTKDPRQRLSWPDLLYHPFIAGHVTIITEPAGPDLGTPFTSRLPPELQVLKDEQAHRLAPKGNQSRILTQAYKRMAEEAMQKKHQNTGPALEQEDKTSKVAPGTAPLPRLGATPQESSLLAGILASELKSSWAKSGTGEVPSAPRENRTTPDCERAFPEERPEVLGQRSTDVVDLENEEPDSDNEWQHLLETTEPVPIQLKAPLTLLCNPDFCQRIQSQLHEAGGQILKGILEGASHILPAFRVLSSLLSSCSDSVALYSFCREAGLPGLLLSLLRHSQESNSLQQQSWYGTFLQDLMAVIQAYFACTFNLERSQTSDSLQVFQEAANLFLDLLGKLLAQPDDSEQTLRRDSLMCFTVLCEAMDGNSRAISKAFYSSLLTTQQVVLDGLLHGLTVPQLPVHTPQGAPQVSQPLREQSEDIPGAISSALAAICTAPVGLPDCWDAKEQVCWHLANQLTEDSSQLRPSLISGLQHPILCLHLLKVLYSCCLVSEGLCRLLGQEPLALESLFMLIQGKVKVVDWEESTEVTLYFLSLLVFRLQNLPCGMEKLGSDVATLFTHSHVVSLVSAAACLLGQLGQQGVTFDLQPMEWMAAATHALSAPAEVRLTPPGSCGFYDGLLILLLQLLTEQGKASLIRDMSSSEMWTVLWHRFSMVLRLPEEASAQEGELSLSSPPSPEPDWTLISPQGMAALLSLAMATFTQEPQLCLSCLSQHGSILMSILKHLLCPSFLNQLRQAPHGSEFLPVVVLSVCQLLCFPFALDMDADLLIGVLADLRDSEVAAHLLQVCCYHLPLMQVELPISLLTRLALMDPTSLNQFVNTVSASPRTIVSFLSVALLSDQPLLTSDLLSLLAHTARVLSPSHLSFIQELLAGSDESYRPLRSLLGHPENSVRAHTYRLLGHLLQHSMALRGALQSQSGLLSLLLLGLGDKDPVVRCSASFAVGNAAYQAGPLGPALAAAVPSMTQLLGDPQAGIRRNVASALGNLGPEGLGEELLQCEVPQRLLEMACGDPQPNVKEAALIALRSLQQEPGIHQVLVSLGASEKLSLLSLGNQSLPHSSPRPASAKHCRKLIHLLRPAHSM

[6] = biological target: Proto-oncogene tyrosine-protein kinase ROS (Homo sapiens) (UniProt P08922); assay: Selectivity interaction (Kinase screening (Nanosyn)) EUB0000604a ROS1
[7] = biological target: T2, Muscarinic acetylcholine receptor M2 (Homo sapiens) (UniProt P08172); assay: Selectivity interaction (Panel of kinases, GPCRs, ion channels and transporters (enzymatic assay)) EUB0000223bCl CHRM2
T2 sequence (whole entry): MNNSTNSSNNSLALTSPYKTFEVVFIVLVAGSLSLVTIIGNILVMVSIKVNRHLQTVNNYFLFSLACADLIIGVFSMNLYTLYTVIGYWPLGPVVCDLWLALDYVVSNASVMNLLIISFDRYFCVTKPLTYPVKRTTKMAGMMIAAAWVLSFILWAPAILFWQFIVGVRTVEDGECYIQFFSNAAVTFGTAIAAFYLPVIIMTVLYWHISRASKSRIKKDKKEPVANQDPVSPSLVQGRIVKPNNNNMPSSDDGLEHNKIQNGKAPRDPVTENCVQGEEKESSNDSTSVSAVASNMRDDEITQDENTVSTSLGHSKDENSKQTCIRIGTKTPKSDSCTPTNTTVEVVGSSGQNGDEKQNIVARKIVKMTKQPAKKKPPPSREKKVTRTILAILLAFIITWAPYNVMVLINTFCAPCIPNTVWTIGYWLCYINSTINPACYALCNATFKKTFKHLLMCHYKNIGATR

[8] = biological target: Maternal embryonic leucine zipper kinase (Homo sapiens) (UniProt Q14680); assay: Selectivity interaction (KinomeScan (DiscoverX)) EUB0000618a MELK; details: at 10 µM
Chain of Maternal embryonic leucine zipper kinase (Homo sapiens) (Q14680 whole entry, looked up): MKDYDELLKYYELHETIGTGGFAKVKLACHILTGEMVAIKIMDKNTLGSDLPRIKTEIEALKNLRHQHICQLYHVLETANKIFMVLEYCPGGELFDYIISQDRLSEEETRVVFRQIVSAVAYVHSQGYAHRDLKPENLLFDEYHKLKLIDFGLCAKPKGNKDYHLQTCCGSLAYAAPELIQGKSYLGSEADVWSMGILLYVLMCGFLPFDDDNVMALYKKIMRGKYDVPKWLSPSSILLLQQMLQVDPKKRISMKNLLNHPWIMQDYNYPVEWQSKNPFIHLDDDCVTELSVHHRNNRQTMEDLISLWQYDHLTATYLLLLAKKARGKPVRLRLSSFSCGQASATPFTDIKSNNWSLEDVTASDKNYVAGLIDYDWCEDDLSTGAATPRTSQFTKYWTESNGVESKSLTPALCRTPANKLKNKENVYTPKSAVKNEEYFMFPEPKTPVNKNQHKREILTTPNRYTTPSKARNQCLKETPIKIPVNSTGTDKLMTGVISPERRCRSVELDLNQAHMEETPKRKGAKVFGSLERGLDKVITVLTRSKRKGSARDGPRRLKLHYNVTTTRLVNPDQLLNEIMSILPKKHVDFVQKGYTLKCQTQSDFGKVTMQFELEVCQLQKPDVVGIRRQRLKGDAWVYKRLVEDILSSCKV

Chain of Hepatocyte growth factor receptor (Homo sapiens), P08581 [M1250T] (P08581 whole entry M1250T): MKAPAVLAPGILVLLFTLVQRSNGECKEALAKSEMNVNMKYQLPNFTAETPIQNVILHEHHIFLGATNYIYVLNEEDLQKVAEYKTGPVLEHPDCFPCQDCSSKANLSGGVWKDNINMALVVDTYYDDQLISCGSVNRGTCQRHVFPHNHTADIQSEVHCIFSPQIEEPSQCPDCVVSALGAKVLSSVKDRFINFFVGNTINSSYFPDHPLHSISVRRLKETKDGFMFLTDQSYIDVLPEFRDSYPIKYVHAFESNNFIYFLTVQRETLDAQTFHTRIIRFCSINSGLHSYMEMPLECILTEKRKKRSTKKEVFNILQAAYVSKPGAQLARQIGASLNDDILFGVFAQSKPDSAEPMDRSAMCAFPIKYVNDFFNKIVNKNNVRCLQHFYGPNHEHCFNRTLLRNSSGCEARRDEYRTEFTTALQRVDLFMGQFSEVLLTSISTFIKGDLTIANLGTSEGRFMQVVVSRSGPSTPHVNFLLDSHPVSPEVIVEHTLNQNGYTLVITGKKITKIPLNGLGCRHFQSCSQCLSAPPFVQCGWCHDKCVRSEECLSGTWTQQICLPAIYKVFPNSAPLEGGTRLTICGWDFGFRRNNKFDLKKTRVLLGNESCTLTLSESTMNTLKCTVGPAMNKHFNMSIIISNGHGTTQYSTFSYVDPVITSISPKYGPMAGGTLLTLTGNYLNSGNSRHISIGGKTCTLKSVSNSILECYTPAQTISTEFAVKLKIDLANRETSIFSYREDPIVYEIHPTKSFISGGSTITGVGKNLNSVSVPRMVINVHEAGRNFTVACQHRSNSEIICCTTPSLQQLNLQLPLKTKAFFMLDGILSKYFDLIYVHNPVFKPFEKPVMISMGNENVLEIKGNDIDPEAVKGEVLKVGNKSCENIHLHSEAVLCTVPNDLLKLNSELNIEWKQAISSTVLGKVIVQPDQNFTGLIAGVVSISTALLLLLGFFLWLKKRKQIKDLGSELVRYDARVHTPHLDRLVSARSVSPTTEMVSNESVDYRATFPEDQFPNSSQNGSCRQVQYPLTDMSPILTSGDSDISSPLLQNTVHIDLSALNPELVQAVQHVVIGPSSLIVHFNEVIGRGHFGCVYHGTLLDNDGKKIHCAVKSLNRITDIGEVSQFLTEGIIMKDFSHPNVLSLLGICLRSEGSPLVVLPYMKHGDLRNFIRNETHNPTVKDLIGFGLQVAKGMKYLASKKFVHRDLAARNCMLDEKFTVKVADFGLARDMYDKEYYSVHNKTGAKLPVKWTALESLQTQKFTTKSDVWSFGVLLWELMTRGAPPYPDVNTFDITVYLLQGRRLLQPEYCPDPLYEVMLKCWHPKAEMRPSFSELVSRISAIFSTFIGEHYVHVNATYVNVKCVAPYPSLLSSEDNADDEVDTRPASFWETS
Chain of Serine/threonine-protein kinase VRK2 (Homo sapiens) (Q86Y07 whole entry): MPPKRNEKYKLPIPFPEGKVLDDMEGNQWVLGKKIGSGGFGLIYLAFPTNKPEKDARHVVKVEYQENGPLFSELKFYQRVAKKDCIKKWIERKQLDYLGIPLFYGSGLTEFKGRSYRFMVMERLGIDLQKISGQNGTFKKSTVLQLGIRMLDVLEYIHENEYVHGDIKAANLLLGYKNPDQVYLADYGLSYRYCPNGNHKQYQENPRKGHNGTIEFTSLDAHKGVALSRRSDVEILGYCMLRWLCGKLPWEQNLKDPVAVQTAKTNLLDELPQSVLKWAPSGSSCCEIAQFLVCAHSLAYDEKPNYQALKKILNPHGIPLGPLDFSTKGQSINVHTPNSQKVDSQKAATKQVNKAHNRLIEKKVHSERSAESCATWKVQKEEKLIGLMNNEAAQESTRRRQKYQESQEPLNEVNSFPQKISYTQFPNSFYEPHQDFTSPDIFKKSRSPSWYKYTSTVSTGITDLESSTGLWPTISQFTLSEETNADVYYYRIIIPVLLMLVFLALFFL

`COc1cc(N(C)c2ccnc3ccc(C(F)(F)F)cc23)cc(OC)c1OC` gave a % binding [1] of 85%.
In the case of `CCc1ccccc1C(=O)Nc1n[nH]c2c(C)c(F)c(C3C(C#N)=C(C)N(C)C(C)=C3C#N)cc12` [BAY-3827], the % of control [2] is reported as 25%, the % of control [3] is reported as 16% and the % of control [4] is reported as 7.3%.
`O=C(NOC[C@H](O)CO)c1ccc(F)c(F)c1Nc1ccc(I)cc1F` was tested, and the % of control [5] was 74%.
Compound `Cc1cnc(Nc2ccc(F)cc2Cl)nc1-c1c[nH]c(C(=O)N[C@H](CO)c2cccc(Cl)c2)c1` has a % of inhibition [6] of 3%.
Work on `COc1cc(C(=O)N2CC[C@@H](O)[C@@H](N)C2)cc2nc(-c3cc4ccccc4n3CC3CC3)n(C)c12` yielded a pXC50 [7] of under 4.8 M.
Work on `O[C@H]1CC[C@H](Nc2ncc3nc(Nc4c(F)cc(F)cc4F)n([C@H]4CCOC4)c3n2)CC1` yielded a % of control [8] of 92%.

Source: ChEMBL document CHEMBL5465560, “Selectivity Literature for EUbOPEN Chemogenomic Library” (2024)
